Experimental data taken from patent publication US20050245440A1, “Regulation of a novel colon specific retinol dehydrogenase by apc and cdx2” (University of Utah Research Foundation, priority 2002, published 2005).
Entries after “also recorded” stand apart in the source; their conditions may differ. Like-named read-outs stand apart in the source and are kept apart here.

Assays:
HT29 cells = conditions: found previously (56); cited from earlier work
[1] = system: RA response genes in HT29 cells; experiment: Microarray analysis of RA response gene expression in HT29 cells; type: cell-based, human
Text: (§1) Cell Culture and Drug Treatments.
(§2) Microarray Analysis. Slides were produced using a Generation m Microarray Spotter (Molecular Dynamics). Each microarray contained 4608 minimally redundant cDNAs spotted in duplicate on 3-aminopropyl-trimethoxy silane (Sigma) coated slides and UV crosslinked in a Stratalinker (Stratagene). The cDNA clones on the microarray were obtained from Research Genetics and Genome Systems. […] . Cultures were transferred to a multiscreen 96-well glass fiber filtration plate (Millipore) and growth medium voided. Twenty-five μl of 25 mM Tris-HCl, pH 8; 10 mM EDTA, 50 μl of 0.2N NaOH, 1% SDS and 160 μl of 0.7M potassium acetate, pH 4.8; 5.3M guanidine hydrochloride were added to each well of the glass filtration plate. Cell lysates were drawn through the glass filters under vacuum and filter-bound DNA was washed four times with 200 μl of 80% ethanol. Plasmid DNAs were eluted by centrifugation following the addition of 65 μl of distilled H2O. Samples were collected in a 96-well microtiter dish during centrifugation.
(§3) Generation of microarray probes, microarray hybridizations, and scanning Total RNA was isolated using Trizol reagent (Invitrogen) and poly-A RNA was selected using an Oligotex Kit (Qiagen). […]
(§4) Hybridizations were performed overnight at 42° C. in a humidified chamber. […] Fluorescent intensities were quantified using ArrayVision 4.0 (Imaging Research).

RDHL [2] = experiment: Northern analysis of RDHL expression in HT29 cells; type: cell-based, human; conditions: 5 μM 5-Aza-CdR, cultured 6 days
Text: (§5) Cell Culture and Drug Treatments. […] Northern blotting.

RDH5 [3] = experiment: Northern analysis of RDH5 expression in HCT116 cells; type: cell-based, human; conditions: 5-Aza-CdR
Text: as §5

RDH5 [4] = experiment: Northern analysis of RDH5 expression in HT29 cells; conditions: after 5-Aza-CdR treatment
cdx2 [5] = experiment: Northern analysis of cdx2 expression in HT29 cells; type: cell-based, human; conditions: after 5-Aza-CdR
Text: as §5

HCT116 cells = conditions: following 5-Aza-CdR treatment; cited from earlier work
[6] = system: RA response genes in HCT116 cells; experiment: Microarray analysis of RA response gene expression in HCT116 cells; type: cell-based, human; conditions: 5 μM 5-Aza-CdR
Text: as §1, §2, §3, §4

RDHL [7] = experiment: Northern analysis of RDHL in HT29 β-galactosidase-inducible cells; type: cell-based, human; conditions: HT29 β-galactosidase-inducible cells (negative control); 100 μM ZnCl2 24 h vs water
Text: as §5

RDHL [8] = experiment: Northern analysis of RDHL in HT29 APC-inducible cells; type: cell-based, human; conditions: 100 μM ZnCl2 24 h vs water, normalized to GAPDH
Text: as §5

cdx2 [9] = experiment: Northern analysis of cdx2 in HT29 APC-inducible cells; type: cell-based, human; conditions: 100 μM ZnCl2 24 h, data not shown
Text: as §5

colon cancer cells = conditions: cited from earlier work

Nc1ncn([C@H]2C[C@H](O)[C@@H](CO)O2)c(=O)n1 [5-Aza-CdR, 5-aza-2′-deoxycytidine]
differentiation and differentiation markers (HT29 cells): stimulates biological aspects of differentiation and the appearance of differentiation markers | RA responsiveness of RA response genes ([1]; 5 μM 5-Aza-CdR 10 days, then 1 μM RA 24 h): conferred RA responsiveness | RA response gene expression ([1]; 5 μM 5-Aza-CdR on day 0, cultured 10 days, microarray vs PBS/ethanol): enhances | RDHL expression (RDHL [2]): expression of RDHL only after treatment with 5-Aza-CdR; also recorded: re-expressed | RDH5 expression (RDH5 [3]): no effect | RDH5 levels (RDH5 [4]): slightly increased; also recorded: re-expressed | cdx2 expression (cdx2 [5]): induction of cdx2 | markers of differentiation (HCT116 cells): few markers of differentiation | RA response gene expression [6]: not induced

[Cl-].[Cl-].[Zn+2] [ZnCl2]
fold RDHL induction (RDHL [7]): 1.2 fold | fold RDHL induction (RDHL [8]): 3.2 fold | cdx2 induction after re-introduction of APC (cdx2 [9]): no cdx2 induction

CC(=O)[C@H]1CC[C@H]2[C@@H]3CCC4=CC(=O)CC[C@]4(C)[C@H]3CC[C@]12C [progesterone]
cell growth of colon cancer cells (colon cancer cells; one study (86)): failed to affect cell growth

C[C@]12CC[C@H]3[C@@H](CCC4=CC(=O)CC[C@@]43C)[C@@H]1CC[C@@H]2O [testosterone]
cell growth of colon cancer cells (colon cancer cells; another group (87)): increased cell growth | cell growth of colon cancer cells (colon cancer cells; one study (86)): failed to affect cell growth
